Laboratory results published in ChEMBL document CHEMBL3045518, “Synthesis of novel 3-[5-ethyl-2-(2-phenoxy-ethyl)-pyridin]-5-substituted isoxazoline libraries via 1,3-dipolar cycloaddition and evaluation of antimicrobial activities” (2006).
Converted amounts (≈) assume the structure as drawn.

Key:
Assay type in all cases: functional
Penicillium sp. [1] = experiment: Antifungal activity against Penicillium sp. at 25 ug/disk after 48 hr by disk diffusion method; details: for zone of inhibition at 25 µg/disc: read-out: DIZ
Fusarium verticillioides [2] = experiment: Antifungal activity against Fusarium verticillioides at 25 ug/disk after 48 hr by disk diffusion method; details: for zone of inhibition at 25 µg/disc: read-out: DIZ
Trichoderma [3] = experiment: Antifungal activity against Trichoderma sp. at 25 ug/disk after 48 hr by disk diffusion method; details: for zone of inhibition at 25 µg/disc: read-out: DIZ
Fusarium oxysporum [4] = experiment: Antifungal activity against Fusarium oxysporum at 25 ug/disk after 48 hr by disk diffusion method; details: for zone of inhibition at 25 µg/disc: read-out: DIZ
Aspergillus flavus [5] = experiment: Antifungal activity against Aspergillus flavus at 25 ug/disk after 48 hr by disk diffusion method; details: for zone of inhibition at 25 µg/disc: read-out: DIZ
Aspergillus niger [6] = experiment: Antifungal activity against Aspergillus niger at 25 ug/disk after 48 hr by disk diffusion method; details: for zone of inhibition at 25 µg/disc: read-out: DIZ
Xanthomonas oryzae [7] = experiment: Antibacterial activity against Xanthomonas oryzae at 25 ug/disk after 24 hr by disk diffusion method; details: read-out: DIZ
[8] = system: Xanthomonas euvesicatoria pv. sesami; experiment: Antibacterial activity against Xanthomonas campestris pv. sesami at 25 ug/disk after 24 hr by disk diffusion method; details: read-out: DIZ
Pseudomonas fluorescens [9] = experiment: Antibacterial activity against Pseudomonas fluorescens at 25 ug/disk after 24 hr by disk diffusion method; details: read-out: DIZ
Escherichia coli [10] = experiment: Antibacterial activity against Escherichia coli at 25 ug/disk after 24 hr by disk diffusion method; details: read-out: DIZ
Bacillus subtilis [11] = experiment: Antibacterial activity against Bacillus subtilis at 25 ug/disk after 24 hr by disk diffusion method; details: read-out: DIZ
Penicillium sp. [12] = experiment: Antifungal activity against Penicillium sp. after 48 hr by microdilution method
Fusarium verticillioides [13] = experiment: Antifungal activity against Fusarium verticillioides after 48 hr by microdilution method
Trichoderma [14] = experiment: Antifungal activity against Trichoderma sp. after 48 hr by microdilution method
Aspergillus flavus [15] = experiment: Antifungal activity against Aspergillus flavus after 48 hr by microdilution method
Fusarium oxysporum [16] = experiment: Antifungal activity against Fusarium oxysporum after 48 hr by microdilution method
Xanthomonas oryzae [17] = experiment: Antibacterial activity against Xanthomonas oryzae by microdilution method
Aspergillus niger [18] = experiment: Antifungal activity against Aspergillus niger after 48 hr by microdilution method
[19] = system: Xanthomonas euvesicatoria pv. sesami; experiment: Antibacterial activity against Xanthomonas campestris pv. sesami by microdilution method
Pseudomonas fluorescens [20] = experiment: Antibacterial activity against Pseudomonas fluorescens by microdilution method
Escherichia coli [21] = experiment: Antibacterial activity against Escherichia coli by microdilution method
Bacillus subtilis [22] = experiment: Antibacterial activity against Bacillus subtilis by microdilution method

Molecule	zone of inhibition at 25 µg/disc (Penicillium sp. [1])	zone of inhibition at 25 µg/disc (Fusarium verticillioides [2])	zone of inhibition at 25 µg/disc (Trichoderma [3])	zone of inhibition at 25 µg/disc (Fusarium oxysporum [4])	zone of inhibition at 25 µg/disc (Aspergillus flavus [5])	zone of inhibition at 25 µg/disc (Aspergillus niger [6])	zone of inhibition at 25 µg/disc (Xanthomonas oryzae [7])	zone of inhibition at 25 µg/disc [8]	zone of inhibition at 25 µg/disc (Pseudomonas fluorescens [9])	zone of inhibition at 25 µg/disc (Escherichia coli [10])	zone of inhibition at 25 µg/disc (Bacillus subtilis [11])	MIC (Penicillium sp. [12])	MIC (Fusarium verticillioides [13])	MIC (Trichoderma [14])	MIC (Aspergillus flavus [15])	MIC (Fusarium oxysporum [16])	MIC (Xanthomonas oryzae [17])	MIC (Aspergillus niger [18])	MIC [19]	MIC (Pseudomonas fluorescens [20])	also measured
CCOC(=O)C1CC(c2ccc(OCCc3ccc(CC)cn3)cc2)=NO1 (stereo not given)	8 mm	9 mm	12 mm	11 mm	8 mm	6 mm	9 mm	9 mm	13 mm	12 mm	11 mm	11 µg/mL (≈ 29.9 µM)	12 µg/mL (≈ 32.6 µM)	14 µg/mL (≈ 38 µM)	18 µg/mL (≈ 48.9 µM)	14 µg/mL (≈ 38 µM)	16 µg/mL (≈ 43.4 µM)	17 µg/mL (≈ 46.1 µM)	14 µg/mL (≈ 38 µM)	16 µg/mL (≈ 43.4 µM)	MIC (Escherichia coli [21]): 16 µg/mL (≈ 43.4 µM); MIC (Bacillus subtilis [22]): 20 µg/mL (≈ 54.3 µM)
CCc1ccc(CCOc2ccc(C3=NOC(Cc4ccc(OC)c(OC)c4)C3)cc2)nc1 (stereo not given)	8 mm	10 mm	13 mm	12 mm	7 mm	6 mm	9 mm	10 mm	14 mm	15 mm	14 mm	12 µg/mL (≈ 26.9 µM)	11 µg/mL (≈ 24.6 µM)	15 µg/mL (≈ 33.6 µM)	17 µg/mL (≈ 38.1 µM)	13 µg/mL (≈ 29.1 µM)	15 µg/mL (≈ 33.6 µM)	18 µg/mL (≈ 40.3 µM)	11 µg/mL (≈ 24.6 µM)	15 µg/mL (≈ 33.6 µM)	MIC (Escherichia coli [21]): 15 µg/mL (≈ 33.6 µM); MIC (Bacillus subtilis [22]): 20 µg/mL (≈ 44.8 µM)
CCc1ccc(CCOc2ccc(C3=NOC(c4ccccc4)C3)cc2)nc1 (stereo not given)	3 mm	3 mm	6 mm	4 mm	4 mm	3 mm	4 mm	4 mm	6 mm	6 mm	5 mm	23 µg/mL (≈ 61.8 µM)	20 µg/mL (≈ 53.7 µM)	20 µg/mL (≈ 53.7 µM)	24 µg/mL (≈ 64.4 µM)	21 µg/mL (≈ 56.4 µM)	25 µg/mL (≈ 67.1 µM)	22 µg/mL (≈ 59.1 µM)	27 µg/mL (≈ 72.5 µM)	26 µg/mL (≈ 69.8 µM)	MIC (Escherichia coli [21]): 28 µg/mL (≈ 75.2 µM); MIC (Bacillus subtilis [22]): 27 µg/mL (≈ 72.5 µM)
CCc1ccc(CCOc2ccc(C3=NOC(Cc4ccc(O)c(OC)c4)C3)cc2)nc1 (stereo not given)	9 mm	11 mm	15 mm	13 mm	10 mm	7 mm	12 mm	13 mm	18 mm	14 mm	12 mm	11 µg/mL (≈ 25.4 µM)	10 µg/mL (≈ 23.1 µM)	13 µg/mL (≈ 30.1 µM)	15 µg/mL (≈ 34.7 µM)	12 µg/mL (≈ 27.7 µM)	13 µg/mL (≈ 30.1 µM)	16 µg/mL (≈ 37 µM)	10 µg/mL (≈ 23.1 µM)	12 µg/mL (≈ 27.7 µM)	MIC (Escherichia coli [21]): 14 µg/mL (≈ 32.4 µM); MIC (Bacillus subtilis [22]): 18 µg/mL (≈ 41.6 µM)
NYSTATIN	–	–	–	–	–	–	–	–	–	–	–	10 µg/mL	9 µg/mL	12 µg/mL	15 µg/mL	11 µg/mL	–	15 µg/mL	–	–	inhibition zone (IZ) (Penicillium sp. [1]): 10 mm; inhibition zone (IZ) (Fusarium verticillioides [2]): 12 mm; inhibition zone (IZ) (Trichoderma [3]): 16 mm; inhibition zone (IZ) (Fusarium oxysporum [4]): 14 mm; inhibition zone (IZ) (Aspergillus flavus [5]): 10 mm; inhibition zone (IZ) (Aspergillus niger [6]): 8 mm
